pIC50: −log10 of the molar value. No end group written: not given here.
What was measured:
Test in all cases: biochemical
DRB3*0101 = DRB3*0101 (Homo sapiens, UniProt P01903+P79483); assay type: binding
DRB1*1101 = DRB1*1101 (Homo sapiens, UniProt P01903+P01911, A100R/A169T/A87E/I96F/K41T/L162R/M171V/P40S/Q125H/Q178H/Q39Y/Q99D/R42S/S66Y/T262R/V115G/W38E)
DRB1*1201 = DRB1*1201 (Homo sapiens, UniProt P01903+P01911, A100R/A169T/D57E/D86V/F55L/H45Y/K41T/L162R/M171V/P40S/Q125H/Q178H/Q39Y/Q99D/R42G/S66L/T262R/V114A/V67L/W38E/Y59H/Y61H/Y89S); assay type: binding
DRB1*0802 = DRB1*0802 (Homo sapiens, UniProt P01903+P01911, A100R/A103L/A169T/F76Y/H45Y/I96F/K41T/L162R/M171V/P40S/Q125H/Q178H/Q39Y/Q99D/R218S/R42G/S66Y/V115G/W38E); assay type: binding
DRB5*0101 = DRB5*0101 (Homo sapiens, UniProt P01903+Q30154)
DRB1*1501 = DRB1*1501 (Homo sapiens, UniProt P01903+P01911); assay type: binding
DR7 (DRB1*0701) = DR7 (DRB1*0701) (Homo sapiens, UniProt P01903+P01911, A100R/A102G/A103Q/D57E/D86V/E43K/F76Y/K127E/L162R/M171V/P40G/Q125H/Q99D/R33Q/R42Y/R54Q/S133A/S66F/T210M/V115G/Y107V/Y59L/Y89S); assay type: binding
DRB1*0901 = DRB1*0901 (Homo sapiens, UniProt P01903+P01911, A100R/A103E/D57H/D86V/F55Y/F60I/F76Y/I96F/K127E/L162R/M171V/P40D/Q125H/Q99R/R33Q/R42F/S133A/S66N/T210M/V115G/W38K/Y107V/Y59G/Y89S); assay type: binding
DRB1*1302 = DRB1*1302 (Homo sapiens, UniProt P01903+P01911, A100E/A169T/K41T/L162R/M171V/P40S/Q125H/Q178H/Q39Y/Q99D/R42S/S66N/T262R/V115G/W38E/Y61H); assay type: binding
DR1 (DRB1*0101) = DR1 (DRB1*0101) (Homo sapiens, UniProt P01903+P01911, A100R/D57E/F55L/F60I/F76Y/I96L/L162R/M171V/P40L/Q125E/R42F/V115G/Y59C); assay type: binding
DRB4*0101 = DRB4*0101 (Homo sapiens, UniProt P01903+P13762, G164S); assay type: binding
DRB1*0405 = DRB1*0405 (Homo sapiens, UniProt P01903+P01911, A100R/A169T/D86S/F76Y/I96L/K127E/L162R/M171V/N62H/P40V/Q125Y/R42H/S133A/S149N/S66Y/V115G/V209L/W38E); assay type: binding
DR4w4 (DRB1*0401) = DR4w4 (DRB1*0401) (Homo sapiens, UniProt P01903+P01911, A100K/A169T/F76Y/I96L/K127E/L162R/M171V/N62H/P40V/Q125Y/R42H/S133A/S149N/S66Y/V115G/V209L/W38E); assay type: binding

Chain of DRB1*1101 (P01903 26-254 limits assumed, other chains not shown): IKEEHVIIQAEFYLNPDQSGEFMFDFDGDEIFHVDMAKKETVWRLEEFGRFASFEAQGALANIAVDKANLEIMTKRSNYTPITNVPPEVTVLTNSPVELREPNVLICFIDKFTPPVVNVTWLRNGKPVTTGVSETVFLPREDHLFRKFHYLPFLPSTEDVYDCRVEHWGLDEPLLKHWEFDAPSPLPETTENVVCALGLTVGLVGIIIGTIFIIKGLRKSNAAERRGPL
Chain of DRB1*1302 (P01903 26-254 limits assumed, other chains not shown): as above

| Molecule | pIC50 (DRB3*0101) | pIC50 (DRB1*1101; Binding affinity DRB1 *1101) | pIC50 (DRB1*1201) | pIC50 (DRB1*0802) | pIC50 (DRB5*0101; Binding affinity DRB5 *0101) | pIC50 (DRB1*1501) | pIC50 (DR7 (DRB1*0701)) | pIC50 (DRB1*0901) | pIC50 (DRB1*1302) | pIC50 (DR1 (DRB1*0101)) | pIC50 (DRB4*0101) | pIC50 (DRB1*0405) | pIC50 (DRB1*1101; DRB1*1101) | pIC50 (DRB5*0101; DRB5*0101) | pIC50 (DR4w4 (DRB1*0401)) |
| --- | --- | --- | --- | --- | --- | --- | --- | --- | --- | --- | --- | --- | --- | --- | --- |
| CC[C@H](C)[C@H](NC(=O)[C@H](CO)NC(=O)[C@H](CC(C)C)NC(=O)[C@@H](NC(=O)[C@H](CC(C)C)NC(=O)[C@@H](N)CC(=O)O)C(C)C)C(=O)N[C@@H](C)C(=O)N[C@@H](CC(C)C)C(=O)N[C@@H](CO)C(=O)N[C@H](C(=O)NCC(=O)N[C@@H](CS)C(=O)N[C@H](C(=O)NCC(=O)N[C@@H](C)C(=O)O)[C@@H](C)O)C(C)C [Peptide 68.0002] | < 4.70 | < 4.70 | 5.31 | < 4.70 | < 4.70 |  |  |  |  |  |  |  |  |  |  |
| CC(C)C[C@H](NC(=O)[C@H](CCC(=O)O)NC(=O)[C@H](CCCCN)NC(=O)[C@H](C)NC(=O)[C@H](CC(C)C)NC(=O)[C@@H](NC(=O)[C@H](CO)NC(=O)[C@H](CCCNC(=N)N)NC(=O)[C@@H](N)CC(=O)O)C(C)C)C(=O)N[C@@H](CCCCN)C(=O)N[C@@H](Cc1ccccc1)C(=O)N[C@H](C(=O)N[C@H](C(=O)N[C@@H](CC(C)C)C(=O)N[C@H](C(=O)O)C(C)C)[C@@H](C)O)C(C)C [Peptide 68.0024] | < 4.70 | < 4.70 | 6.52 |  |  |  |  |  |  |  |  |  |  |  |  |
| CC[C@H](C)[C@H](NC(=O)[C@@H](NC(=O)[C@@H]1CCCN1C(=O)CNC(=O)[C@@H](NC(=O)[C@H](CC(C)C)NC(=O)[C@H](CCC(=O)O)NC(=O)[C@H](C)NC(=O)[C@@H](N)Cc1ccccc1)C(C)C)C(C)C)C(=O)N1CCC[C@H]1C(=O)N[C@@H](CCC(N)=O)C(=O)N[C@@H](CC(=O)O)C(=O)N[C@@H](Cc1c[nH]c2ccccc12)C(=O)N[C@@H](CO)C(=O)N[C@H](C(=O)O)[C@@H](C)O [Peptide 68.0056] | < 4.70 | < 4.70 |  | < 4.70 | < 4.70 | < 4.70 | < 4.70 | < 4.70 | < 4.70 |  |  |  |  |  |  |
| CC[C@H](C)[C@H](NC(=O)[C@@H]1CCCN1C(=O)[C@H](Cc1c[nH]cn1)NC(=O)[C@@H](NC(=O)[C@@H]1CCCN1C(=O)[C@@H](NC(=O)[C@H](CO)NC(=O)[C@@H]1CCCN1C(=O)[C@H](CC(C)C)NC(=O)CNC(=O)[C@@H](NC(=O)[C@H](C)NC(=O)[C@H](CCC(=O)O)NC(=O)[C@H](C)N)C(C)C)[C@@H](C)CC)C(C)C)C(=O)NCC(=O)O [Peptide 68.0101] | < 4.70 | < 4.70 | 6.15 | < 4.70 | < 4.70 |  |  | < 4.70 |  |  |  |  |  |  |  |
| ADKIYSISMKHPQEM [Peptide 68.0125] | < 4.70 |  | 5.03 |  | < 4.70 |  |  |  |  | < 4.70 |  |  |  |  |  |
| EISFAGIVTKLPTAN [Peptide 89.0174] | 7.15 | < 4.70 |  | 4.95 |  | 5.09 | 5.11 | < 4.70 |  | 4.73 | < 4.70 | < 4.70 |  |  |  |
| GIVEQTTTSITSLYQ [Peptide 9000.0054] | < 4.02 |  |  |  |  | 6.07 |  |  | 7.85 |  | 5.64 |  | < 4.98 | < 4.42 |  |
| HPLYNMSLLKHQSLR [Peptide 68.0008] | < 4.70 |  | 7.02 |  |  |  |  |  |  |  |  |  |  |  |  |
| LDHYENDSKDINSQI [Peptide 1601.29] | 5.69 | < 4.70 |  | < 4.70 | < 4.70 | < 4.70 | 4.70 | < 4.70 | < 4.70 | < 4.70 | 6.26 | < 4.70 |  |  | < 4.70 |
| LETIYNSQYSNEKWT [Peptide 1601.03] | < 4.70 | < 4.70 |  | < 4.70 | 6.68 | 6.25 | < 4.70 | 5.22 | 5.17 | 5.07 |  | 5.52 |  |  | 7.00 |
| NMSLLKHQSLRPDED [Peptide 68.0009] | < 4.70 | < 4.70 |  | < 4.70 | < 4.70 | < 4.70 | < 4.70 | < 4.70 | < 4.70 |  |  |  |  |  | < 4.70 |
| RVPVSHSFPHPLYNM [Peptide 68.0006] | < 4.70 | < 4.70 |  | < 4.70 |  |  |  |  |  |  |  |  |  |  | < 4.70 |

Reference: patent US9340577B2, “HLA binding motifs and peptides and their uses” (priority 1992, dated 2016)
